Reference: patent US20080318268A1, “Devices and Methods for the Selection of Agents with Efficacy Against Biofilm” (priority 2005, published 2008)
Like-named read-outs stand apart in the source and are kept apart here.

How the values were obtained:
[1] = system: Staphylococcus aureus (Staph) biofilm; assay: MBEC assay, Staph biofilms (Example 5); format: cell-based; conditions: number of resistant isolates; 12 isolates from device associated infections; exposed 24 hours
[2] = system: planktonic Staphylococcus aureus; assay: Staphylococcus test plate, planktonic forms (Example 9); format: cell-based; conditions: breakpoint concentrations, number in the label is the concentration tested
[3] = system: Staphylococcus aureus (Staph) planktonic bacteria; assay: MBEC assay, planktonic Staph isolates (Example 5); format: cell-based; conditions: number of resistant isolates; 12 isolates from device associated infections; exposed 24 hours
[4] = system: Staphylococcus aureus biofilm; assay: Staphylococcus test plate, biofilm forms (Example 9); format: cell-based; conditions: breakpoint concentrations, number in the label is the concentration tested
[5] = system: biofilm cells of C. albicans; assay: Minimum biofilm eradication concentration assay, C. albicans biofilm; format: cell-based, Candida albicans
Procedure: (§1) Three clinical isolates of Candida were used in this study, including one albicans and two non-albicans species. C. albicans ATCC 14053 was obtained from the University Of Calgary, Department Of Biological Sciences. C. tropicalis 99916 and C. glabrata 14326 were obtained from the dialysate of patients undergoing continued ambulatory peritoneal dialysis (CAPD). Aspergillus fumigatus was also tested.
Biofilm formation and measurement of antimicrobial sensitivity of Candida and Aspergillus biofilms were performed using an assembly of the present invention. The device features a microtiter plate lid with 96 pegs or projections distributed on the lid. Each peg provided the surface for microorganism to adhere, colonize and form a uniform biofilm. The pegs fit precisely into the wells of a standard 96-well microtiter plate. The lid was used in conjunction with a base having special troughs for growing, washing, and incubating fungi. […] It was determined in preliminary experiments that C. glabrata required 10% CO2 atmosphere for biofilms to form.
(§2) Biofilm susceptibility testing uses the pegged lid of the assembly, now containing biofilms formed after rocking in the tray for 24 hour. […] The turbidity of the wells that contained the antibiotic and planktonic cells which were shed from the biofilm was measured at 650 nm to obtain the MIC. […]

[6] = cited from earlier work
[7] = system: planktonic cultures of C. albicans; assay: Planktonic antifungal sensitivity (MIC, MFC) of C. albicans; format: cell-based, Candida albicans
Procedure: as §1
Biofilm susceptibility testing uses the pegged lid of the assembly, now containing biofilms formed after rocking in the tray for 24 hour. Each peg on the lid was gently washed once in 200 μl of phosphate buffered saline solution (PBSS) in a 96-well microtiter plate (Falcon). The pegged lid was then transferred to another 96 well microtiter plate containing 2 fold dilutions antifungal agent in 200 μl of RPMI 1640 (Sigma, St. Louis, Mo.) or RPMI 1640 containing 1% DMSO (see test drug section). After the pegs were exposed to the drugs for 24 hours, the pegged lid was removed and gently rinsed twice in saline. The pegged lid was then placed on a 96 well plate containing RPMI 1640 recovery medium. The pegs were sonicated for 5 minutes (Candida spp.) or 7 minutes (Aspergillus) in an ultrasonicator to dislodge adherent cells into the recovery medium. Aliquots of 20 μl of the recovery medium were spot plated on SDA (Candida spp) or Rose Bengal Agar (A. fumigatus) to obtain the MBEC. […] The turbidity of the wells that contained the antibiotic and planktonic cells which were shed from the biofilm was measured at 650 nm to obtain the MIC. […]
(§3) Minimum Inhibitory Concentrations (MIC) and Minimum Fungicidal Concentrations (MFC) were determined according to the guidelines of the National Committee for Clinical laboratory Standards (NCCLS). […]
(§4) The test wells were then incubated at 37° C. for 24 hours with the antifungal drugs. MICs for Candida were obtained after incubation by reading the turbidity at 650 nm on a microtiter plate reader (Softmax, VWR). […] MFCs were determined for Aspergillus by plating 100 μl from each well onto Rose Bengal Agar, followed by spreading with a sterile glass spreader. […]

[8] = system: planktonic Candida cells; assay: Planktonic antifungal sensitivity of Candida spp.; format: cell-based; conditions: all species tested
Procedure: as §1
(§5) Biofilm susceptibility testing uses the pegged lid of the assembly, now containing biofilms formed after rocking in the tray for 24 hour. Each peg on the lid was gently washed once in 200 μl of phosphate buffered saline solution (PBSS) in a 96-well microtiter plate (Falcon). The pegged lid was then transferred to another 96 well microtiter plate containing 2 fold dilutions antifungal agent in 200 μl of RPMI 1640 (Sigma, St. Louis, Mo.) or RPMI 1640 containing 1% DMSO (see test drug section). After the pegs were exposed to the drugs for 24 hours, the pegged lid was removed and gently rinsed twice in saline. The pegged lid was then placed on a 96 well plate containing RPMI 1640 recovery medium. The pegs were sonicated for 5 minutes (Candida spp.) or 7 minutes (Aspergillus) in an ultrasonicator to dislodge adherent cells into the recovery medium. Aliquots of 20 μl of the recovery medium were spot plated on SDA (Candida spp) or Rose Bengal Agar (A. fumigatus) to obtain the MBEC. The assembly was also used to determine the minimum inhibitory concentration (MIC) and minimum fungicidal concentration (MFC). The turbidity of the wells that contained the antibiotic and planktonic cells which were shed from the biofilm was measured at 650 nm to obtain the MIC. A 20 μl sample from each well was also spot plated onto Sabouraud Dextrose agar (Candida spp) or Rose Bengal Agar (A. fumigatus) to obtain the MFC.
Minimum Inhibitory Concentrations (MIC) and Minimum Fungicidal Concentrations (MFC) were determined according to the guidelines of the National Committee for Clinical laboratory Standards (NCCLS). Briefly, Candida sp. were maintained on polystyrene spheres at −70° C. until plating. These organisms were streaked onto Sabouraud Dextrose agar (Microbiologie) plates 24 hours before test initiation. The 24 hour colonies were picked from the agar plates and placed in Muellar-Hinton Broth (MHB, Microbiologie) such that the turbidity matched a McFarland standard of 0.5. This was then diluted 1:10 in MHB to obtain a suspension of approximately 1×10^5 to 5×10^5 CFU/ml. A 5 μl volume of this suspension was added to wells containing 200 μl of antifungal agent serially diluted in RPMI 1640 media (Sigma) in a 96 well microtiter plate (Nunclon). A. fumigatus was maintained as a spore suspension at 4° C. until testing. The spore suspension (50 μl) was diluted into 250 ml of TSB, and 5 μl of this suspension was added to each test well containing dilution of antifungal agent as above.
The test wells were then incubated at 37° C. for 24 hours with the antifungal drugs. MICs for Candida were obtained after incubation by reading the turbidity at 650 nm on a microtiter plate reader (Softmax, VWR). A 20 μl aliquot of each well was also plated (SDA) and MFCs obtained from them after 24 hours incubation at 37° C. MFCs were determined for Aspergillus by plating 100 μl from each well onto Rose Bengal Agar, followed by spreading with a sterile glass spreader. The plated organisms were maintained at 25° C. for three days before colony enumeration.
Drugs tested. Itraconazole, Fluconazole, and Ketoconazole were obtained from Janssen Pharmaceuticals in Brussels, Belgium. Nystatin 5-Fluorocytosine, Griseofulvin, Amphotericin B and Polymyxin B were obtained from Sigma Chemical Co, St. Louis, Mo. 5-Fluorocytosine, polymyxin B sulphate and nystatin were dissolved in double-distilled water to a concentration of 10.24 mg/ml and diluted in the test wells through a range of 1024 μg/ml to 0.125 μg/ml in RPMI. […]

[9] = system: invasive pulmonary, sinus and cerebral aspergillosis; conditions: cited from earlier work
[10] = system: Candida biofilms; assay: Minimum biofilm eradication concentration assay, Candida spp. biofilms; format: cell-based
Procedure: as §1
Biofilm formation and measurement of antimicrobial sensitivity of Candida and Aspergillus biofilms were performed using an assembly of the present invention. The device features a microtiter plate lid with 96 pegs or projections distributed on the lid. Each peg provided the surface for microorganism to adhere, colonize and form a uniform biofilm. The pegs fit precisely into the wells of a standard 96-well microtiter plate. The lid was used in conjunction with a base having special troughs for growing, washing, and incubating fungi. Colonies of Candida sp. were picked from 24 hour cultures on Sabouraud Dextrose agar (SDA) (BBL Microbiological Systems, Cockeysville, Md.) and placed into Mueller-Hinton Broth (MHB) (Difco Laboratories, Detroit Mich.) such that the suspension matched a McFarland standard of 1.0. This suspension was then diluted 1:30 in MHB, and 25 ml were pipetted into the trough chamber of the base. The closed assembly (lid with pegs positioned on the base) was placed on a Hoeffer Red Rocker (VWR, Scientific) set to rock the plates 3.5 cycles per minute in a 37° C. incubator. C. albicans and C. tropicalis were incubated aerobically, while C. glabrata was incubated in 10% CO2. It was determined in preliminary experiments that C. glabrata required 10% CO2 atmosphere for biofilms to form.
as §5
Drugs tested. Itraconazole, Fluconazole, and Ketoconazole were obtained from Janssen Pharmaceuticals in Brussels, Belgium. Nystatin 5-Fluorocytosine, Griseofulvin, Amphotericin B and Polymyxin B were obtained from Sigma Chemical Co, St. Louis, Mo. […]

[11] = system: C. tropicalis; assay: Planktonic antifungal sensitivity (MIC) of C. tropicalis; format: cell-based, Candida tropicalis; conditions: C. tropicalis strain tested
Procedure: as §1
as §2, with “hour. Each peg on the lid was gently washed once in 200 μl of phosphate buffered saline solution (PBSS) in a 96-well microtiter plate (Falcon).” for “hour.”
as §3, §4

[12] = system: Pseudomonas aeruginosa (Ps) planktonic bacteria; assay: MBEC assay, planktonic Ps isolates (Example 5); format: cell-based; conditions: number of resistant isolates; 12 isolates from Cystic Fibrosis patients; exposed 24 hours
[13] = system: P. aeruginosa biofilm; assay: Pseudomonas aeruginosa biofilm assay kit, biofilm MBEC reading of recovery plate (Example 8); format: cell-based; conditions: challenge 24 hours at 35° C.; recovery 20 to 24 hours; breakpoint concentrations
[14] = system: planktonic P. aeruginosa; assay: Pseudomonas aeruginosa biofilm assay kit, planktonic MIC reading of challenge plate (Example 8); format: cell-based; conditions: challenge 24 hours at 35° C.; breakpoint concentrations
[15] = system: Pseudomonas aeruginosa (Ps) biofilm; assay: MBEC assay, Ps biofilms (Example 5); format: cell-based; conditions: number of resistant isolates; 12 isolates from Cystic Fibrosis patients; exposed 24 hours
[16] = planktonic cultures of C. albicans

## CN[C@H](CC(C)C)C(=O)N[C@H]1C(=O)N[C@@H](CC(N)=O)C(=O)N[C@H]2C(=O)N[C@H]3C(=O)N[C@H](C(=O)N[C@H](C(=O)O)c4cc(O)cc(O)c4-c4cc3ccc4O)[C@H](O)c3ccc(c(Cl)c3)Oc3cc2cc(c3O[C@@H]2O[C@H](CO)[C@@H](O)[C@H](O)[C@H]2O[C@H]2C[C@](C)(N)[C@H](O)[C@H](C)O2)Oc2ccc(cc2Cl)[C@H]1O [VAN, vancomycin]
[1]
  Staph resistance to individual antibiotics and antibiotic combinations, Biofilm: 12
[2]; listed as VAN2
  Number of Staphylococcus aureus isolates resistant to individual antibiotics and antibiotic combinations, Planktonic: 5
[2]; listed as VAN4
  Number of Staphylococcus aureus isolates resistant to individual antibiotics and antibiotic combinations, Planktonic: 1
[3]
  Staph resistance to individual antibiotics and antibiotic combinations, Planktonic: 6
[4]
  Number of Staphylococcus aureus isolates resistant to individual antibiotics and antibiotic combinations, Biofilm: 12

## C[C@@H]1[C@H](O)[C@@H](C)/C=C/C=C/C=C/C=C/C=C/C=C/C=C/[C@H](O[C@@H]2O[C@H](C)[C@@H](O)[C@H](N)[C@@H]2O)C[C@@H]2O[C@](O)(C[C@@H](O)C[C@@H](O)[C@H](O)CC[C@@H](O)C[C@@H](O)CC(=O)O[C@H]1C)C[C@H](O)[C@H]2C(=O)O [amphotericin B, Amphotericin B]
[5]
  average concentration required to kill biofilm cells: 12 µg/mL
[6]
  peak permissible human serum concentrations: 2 µg/mL
[7]; [16]
  average MFC: 0.02 µg/mL
  average MIC: 0.09 µg/mL
[8]
  effectiveness in killing planktonic Candida cells: effective
[9]; 14 days of treatment
  cases that show any response: 54%
[9]; patients treated for invasive cerebral aspergillosis
  crude mortality rate: 99%
[9]; patients treated for invasive pulmonary aspergillosis
  crude mortality rate: 86%
[9]; patients treated for invasive sinus aspergillosis
  crude mortality rate: 66%
[10]; Candida biofilms
  MBEC: 16 µg/mL
[10]; biofilm (sessile) Candida
  effectiveness against Candida growing as a biofilm: most effective agents

## OC(Cn1cncn1)(Cn1cncn1)c1ccc(F)cc1F [fluconazole, Fluconazole]
[11]
  classification by fluconazole MIC criterion (less than or equal to 8 μg/ml = susceptible): susceptible
[7]; C. albicans strain tested
  classification by fluconazole MIC criterion (less than or equal to 8 μg/ml = susceptible): susceptible
[8]
  effectiveness in killing planktonic Candida cells: effective

## gentamicin [GM]
[12]
  Ps resistance to individual antibiotics and antibiotic combinations, Planktonic: 8
[1]
  Staph resistance to individual antibiotics and antibiotic combinations, Biofilm: 10
[2]; listed as GM2
  Number of Staphylococcus aureus isolates resistant to individual antibiotics and antibiotic combinations, Planktonic: 4
[2]; listed as GM4
  Number of Staphylococcus aureus isolates resistant to individual antibiotics and antibiotic combinations, Planktonic: 3
[13]
  Number of P. aeruginosa isolates resistant to individual antibiotics and antibiotic combinations, Biofilm: 12
[3]
  Staph resistance to individual antibiotics and antibiotic combinations, Planktonic: 6
[14]
  Number of P. aeruginosa isolates resistant to individual antibiotics and antibiotic combinations, Planktonic: 8
[4]; listed as GM2
  Number of Staphylococcus aureus isolates resistant to individual antibiotics and antibiotic combinations, Biofilm: 11
[4]; listed as GM4
  Number of Staphylococcus aureus isolates resistant to individual antibiotics and antibiotic combinations, Biofilm: 10
[15]
  Ps resistance to individual antibiotics and antibiotic combinations, Biofilm: 12
